# Assay results from BindingDB's records for doi:10.1016/s0014-2999(99)00610-x (Hungarian Academy of Sciences, 1999).
# pKi: −log10 of the molar value. “And” between values parts separate entries of the source, which are not always exact repeats. Equal values may be shown once. Where a SMILES comes first, the peptide text is derived from it. [ ]: non-standard residue; d: D form. Tic = O=C(O)[C@@H]1Cc2ccccc2CN1
# Assays:
# [1] = target: Mu-type opioid receptor (Rattus norvegicus, UniProt P33535)
# [2] = target: Kappa-type opioid receptor (Rattus norvegicus, UniProt P34975)
# Sequence of Kappa-type opioid receptor (Rattus norvegicus, UniProt P34975) (P34975 whole entry): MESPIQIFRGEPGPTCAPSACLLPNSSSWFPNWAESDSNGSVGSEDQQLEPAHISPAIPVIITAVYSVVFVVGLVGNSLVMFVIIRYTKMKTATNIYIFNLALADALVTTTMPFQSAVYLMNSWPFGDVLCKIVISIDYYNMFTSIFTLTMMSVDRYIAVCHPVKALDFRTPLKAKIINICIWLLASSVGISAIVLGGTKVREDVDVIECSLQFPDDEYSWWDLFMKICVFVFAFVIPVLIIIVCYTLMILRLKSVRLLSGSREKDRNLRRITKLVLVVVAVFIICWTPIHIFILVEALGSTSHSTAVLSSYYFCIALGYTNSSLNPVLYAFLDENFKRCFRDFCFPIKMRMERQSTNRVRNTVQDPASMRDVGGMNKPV
# [3] = target: Mu-type opioid receptor (Cavia porcellus, UniProt P97266)
# Sequence of Mu-type opioid receptor (Cavia porcellus, UniProt P97266) (P97266 whole entry): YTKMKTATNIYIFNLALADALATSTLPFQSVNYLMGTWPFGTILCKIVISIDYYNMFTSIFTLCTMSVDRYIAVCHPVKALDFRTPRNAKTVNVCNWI
# [4] = target: Kappa-type opioid receptor (Cavia porcellus, UniProt P41144)
# Sequence of Kappa-type opioid receptor (Cavia porcellus, UniProt P41144) (P41144 whole entry): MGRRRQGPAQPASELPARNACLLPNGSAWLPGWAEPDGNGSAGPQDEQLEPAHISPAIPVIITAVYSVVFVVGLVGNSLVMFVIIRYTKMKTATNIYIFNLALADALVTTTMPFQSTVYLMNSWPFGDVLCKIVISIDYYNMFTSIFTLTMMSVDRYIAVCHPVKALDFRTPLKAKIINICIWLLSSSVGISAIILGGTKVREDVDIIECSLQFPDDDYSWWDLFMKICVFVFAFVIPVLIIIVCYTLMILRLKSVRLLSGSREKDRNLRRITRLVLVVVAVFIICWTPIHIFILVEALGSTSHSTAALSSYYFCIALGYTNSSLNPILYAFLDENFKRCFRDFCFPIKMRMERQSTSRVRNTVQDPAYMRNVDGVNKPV
# [5] = target: Delta-type opioid receptor (Rattus norvegicus, UniProt P33533)
# Sequence of Delta-type opioid receptor (Rattus norvegicus, UniProt P33533) (P33533 whole entry): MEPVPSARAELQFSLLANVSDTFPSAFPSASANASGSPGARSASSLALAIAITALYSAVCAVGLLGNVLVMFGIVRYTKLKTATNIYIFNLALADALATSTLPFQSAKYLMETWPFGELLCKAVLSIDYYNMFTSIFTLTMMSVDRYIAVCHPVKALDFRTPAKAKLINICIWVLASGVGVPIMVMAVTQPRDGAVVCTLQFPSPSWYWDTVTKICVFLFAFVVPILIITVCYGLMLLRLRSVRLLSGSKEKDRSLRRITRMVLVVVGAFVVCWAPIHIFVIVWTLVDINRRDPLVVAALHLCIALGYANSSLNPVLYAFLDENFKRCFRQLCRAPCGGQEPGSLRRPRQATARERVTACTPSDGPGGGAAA
# [6] = target: Delta-type opioid receptor (Sus scrofa, UniProt P79291)
# Sequence of Delta-type opioid receptor (Sus scrofa, UniProt P79291) (P79291 whole entry): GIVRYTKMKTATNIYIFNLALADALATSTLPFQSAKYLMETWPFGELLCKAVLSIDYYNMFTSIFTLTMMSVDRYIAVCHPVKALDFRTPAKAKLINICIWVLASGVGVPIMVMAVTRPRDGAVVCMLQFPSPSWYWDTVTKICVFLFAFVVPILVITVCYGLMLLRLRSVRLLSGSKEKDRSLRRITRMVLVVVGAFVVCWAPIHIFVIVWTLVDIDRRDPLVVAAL
# Sequence of Mu-type opioid receptor (Rattus norvegicus, UniProt P33535) (P33535 whole entry): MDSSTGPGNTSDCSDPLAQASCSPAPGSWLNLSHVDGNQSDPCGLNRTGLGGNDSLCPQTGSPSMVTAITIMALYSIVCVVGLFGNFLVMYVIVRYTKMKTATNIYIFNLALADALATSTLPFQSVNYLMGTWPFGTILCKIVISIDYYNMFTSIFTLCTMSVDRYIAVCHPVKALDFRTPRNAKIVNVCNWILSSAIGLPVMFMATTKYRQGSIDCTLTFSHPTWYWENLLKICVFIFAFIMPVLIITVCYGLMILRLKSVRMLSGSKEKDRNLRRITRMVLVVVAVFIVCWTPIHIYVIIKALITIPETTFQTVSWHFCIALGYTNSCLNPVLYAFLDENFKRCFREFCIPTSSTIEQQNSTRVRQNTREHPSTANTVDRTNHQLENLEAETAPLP
Compound,pKi [3],pKi [5],pKi [6],also measured
COc1cccc2c1[C@]13CCN(CC4CC4)C(C2)[C@]1(OC)CCC(=O)C3,7.58,–,–,pKi [1]: 8.09 and 8.27; pKi [2]: 5.66
C[C@@H](O)[C@H](NC(=O)[C@H]1NC(=O)[C@H]([C@@H](C)O)NC(=O)[C@H](CCCN=C(N)N)NC(=O)[C@@H](Cc2c[nH]c3ccccc23)NC(=O)[C@H](Cc2ccc(O)cc2)NC(=O)[C@@H](NC(=O)[C@H](N)Cc2ccccc2)CSSC1(C)C)C(N)=O,7.32,–,–,pKi [1]: 7.36
Oc1ccc2c3c1OC1c4[nH]c5c(c4CC4(O)CN(CCC314)C(C1CC1)C2)CC1(O)CN2CCC13c1c(ccc(O)c1OC53)CC2C1CC1 (stereo not given) [CAS_105618-26-6],–,–,–,pKi [4]: 6.11; pKi [2]: 6.77
CN1CC[C@]23c4c5ccc(O)c4O[C@H]2[C@@H](O)CCC3[C@H]1C5 (stereo not given in full) [DIHYDROMORPHINE],8.22,–,–,–
CC(C)C[C@H](NC(=O)[C@H](Cc1ccccc1)NC(=O)CNC(=O)[C@@H](CO)NC(=O)[C@@H](N)Cc1ccc(O)cc1)C(=O)N[C@H](C(=O)O)[C@@H](C)O [DSLET-OH],–,8.01,8.20,–
N[C@@H](Cc1ccc(O)cc1)C(=O)N1Cc2ccccc2C[C@H]1C(=O)N[C@@H](Cc1ccccc1)C(=O)N[C@@H](Cc1ccccc1)C(=O)O [TIPP] (H-Y[Tic]FF-OH),–,5.55,5.15,–
CC(C)[C@H](NC(=O)[C@H](CCC(=O)O)NC(=O)[C@H](Cc1ccccc1)NC(=O)[C@@H](C)NC(=O)[C@@H](N)Cc1ccc(O)cc1)C(=O)N[C@H](C(=O)NCC(N)=O)C(C)C [Tyr-D-Ala-Phe-Glu-Val-Val-GlyNH2],–,5.93,5.54,–
"C[C@@H](NC(=O)[C@@H](N)Cc1ccc(O)cc1)C(=O)NCC(=O)N(C)[C@@H](Cc1ccccc1)C(=O)NCCO [[tyrosyl-3,5-3H(N)]-D-Ala2-Mephe4-glyol5-enkephalin]",8.59,–,–,–
